Source: US8106052B2, “Luminescence-based methods and probes for measuring cytochrome P450 activity” (Promega Corporation, priority 2002, dated 2012)

What was measured:
CYP1A2 = target: T1, CYP1A2 (Homo sapiens, UniProt P05177); test: Two-step CYP450/Renilla reaction, coelenterazine derivative evaluation; assay type: biochemical; conditions: 60 min at 37° C.
T1 sequence (P05177 1-516): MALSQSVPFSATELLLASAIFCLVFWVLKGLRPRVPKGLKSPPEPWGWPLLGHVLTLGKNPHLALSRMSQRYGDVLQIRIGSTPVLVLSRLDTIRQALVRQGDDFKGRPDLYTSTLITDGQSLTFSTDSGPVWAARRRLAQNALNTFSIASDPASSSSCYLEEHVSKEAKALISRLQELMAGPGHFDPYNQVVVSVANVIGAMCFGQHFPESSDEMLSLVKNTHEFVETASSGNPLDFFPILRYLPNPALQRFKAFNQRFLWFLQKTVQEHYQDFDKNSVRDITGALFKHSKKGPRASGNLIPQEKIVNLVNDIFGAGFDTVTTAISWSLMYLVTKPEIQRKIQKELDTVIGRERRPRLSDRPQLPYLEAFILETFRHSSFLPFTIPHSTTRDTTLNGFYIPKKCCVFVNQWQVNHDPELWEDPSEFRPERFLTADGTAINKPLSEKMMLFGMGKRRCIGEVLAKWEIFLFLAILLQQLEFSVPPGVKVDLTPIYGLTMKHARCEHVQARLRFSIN
Method: (§1) In this Example, P450 activity was determined using coelenterazine and coelenterazine derivatives, methoxy-coelenterazine HH and coelenterazine HH, in a two-step reaction system. In these assays, P450 acts on the coelenterazine or coelenterazine derivatives in one of two ways. […] An example of this type of coelenterazine derivative is methoxy-coelenterazine HH. […] In both types of assay it is possible to detect P450 activity either directly by a change in chemiluminescence or indirectly by a change in bioluminescence from a Renilla-type luciferase.
(§2) […]; 625 mM KCl; 0.125 mM EDTA pH 8.0; 0.25% Triton X-100; 0.125% Mazu; 1.25% Glycerol; 0.25 mg/mL gelatin to the P450 reactions. Renilla luciferase (1.2 ng/mL) (purchased from Chemicon) was added for detection of bioluminescence of P450 altered coelenterazine or coelenterazine derivatives.

CYP2C19 = target: T2, CYP2C19 (Homo sapiens, UniProt P33261); test: as above; assay type: biochemical; conditions: 60 min at 37° C.; 10 micromolar substrate
T2 construct: purchased GenTest (Woburn, Mass.); host or cells: Sf9 insect cells, baculovirus
Method: as §1, §2

CYP2B6 = target: T3, CYP2B6 (Homo sapiens, UniProt P20813); test: as above; assay type: biochemical; conditions: 60 min at 37° C.; 10 micromolar substrate
T3 construct: purchased GenTest (Woburn, Mass.); host or cells: Sf9 insect cells, baculovirus
T3 sequence (P20813 1-491): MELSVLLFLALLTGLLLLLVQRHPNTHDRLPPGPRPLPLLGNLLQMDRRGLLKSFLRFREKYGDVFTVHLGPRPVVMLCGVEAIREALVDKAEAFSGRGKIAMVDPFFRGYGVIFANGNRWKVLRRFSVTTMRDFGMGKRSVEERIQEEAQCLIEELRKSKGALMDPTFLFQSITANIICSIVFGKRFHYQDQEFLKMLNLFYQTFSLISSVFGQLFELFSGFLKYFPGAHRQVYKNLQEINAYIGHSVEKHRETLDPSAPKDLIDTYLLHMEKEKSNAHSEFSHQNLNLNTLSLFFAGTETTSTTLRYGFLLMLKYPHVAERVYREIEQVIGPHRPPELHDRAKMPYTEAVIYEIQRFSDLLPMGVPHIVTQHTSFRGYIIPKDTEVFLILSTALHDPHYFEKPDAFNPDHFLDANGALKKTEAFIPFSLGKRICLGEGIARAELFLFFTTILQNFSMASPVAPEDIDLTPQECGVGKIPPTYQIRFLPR
Method: as §1, §2

CYP1A1 [1] = target: T4, CYP1A1 (Homo sapiens, UniProt P04798); test: as above; assay type: biochemical; parameters: purchased GenTest (Woburn, Mass.); host or cells: baculovirus-infected insect cells; conditions: 60 min at 37° C.; 10 micromolar substrate
T4 sequence (P04798 1-512): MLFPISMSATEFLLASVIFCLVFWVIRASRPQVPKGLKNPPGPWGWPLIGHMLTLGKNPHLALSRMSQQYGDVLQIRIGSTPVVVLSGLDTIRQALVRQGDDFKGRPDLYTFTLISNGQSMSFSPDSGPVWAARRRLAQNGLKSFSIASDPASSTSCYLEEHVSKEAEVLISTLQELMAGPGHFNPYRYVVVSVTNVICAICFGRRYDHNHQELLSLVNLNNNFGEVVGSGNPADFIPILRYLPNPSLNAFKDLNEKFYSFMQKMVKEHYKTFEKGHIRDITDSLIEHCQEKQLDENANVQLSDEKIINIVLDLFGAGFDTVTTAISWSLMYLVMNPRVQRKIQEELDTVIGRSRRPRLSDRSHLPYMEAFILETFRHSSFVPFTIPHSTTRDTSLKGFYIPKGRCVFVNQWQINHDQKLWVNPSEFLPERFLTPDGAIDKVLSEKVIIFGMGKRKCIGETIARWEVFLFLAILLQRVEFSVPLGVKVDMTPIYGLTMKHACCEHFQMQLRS
Method: as §1, §2

thermostable luciferase = test: Stabilization of luminescent signal using luciferase inhibitors; conditions: 100 micromolar inhibitor; CYP1A1 with Luciferin chloroethyl ether; read for 1 hour
Method: FIG. 17. Stabilization of luminescent signals using luciferase inhibitors. […] Luminescence was read immediately and at subsequent 5 minute intervals for 1 hour.
(AMBT) or 2-(4-aminophenyl)-6-methylbenzothiazole (APMBT), were evaluated to determine their effect on stabilizing a luminescent signal.
Luminescence was read immediately and at subsequent 5 minute intervals for 1 hour.

CYP1A1 [2] = target: T4, CYP1A1; test: Two-step luminescent CYP450 inhibition assay; assay type: biochemical; parameters: purchased GenTest (Woburn, Mass.); host or cells: Sf9 insect cells; conditions: substrate Luc CEE; 50 microliter reaction, 1 picomole CYP450; read-out: IC50 of known CYP450 substrate against CYP1A1/Luc CEE
Method: After an initial incubation period at 37° C.
Luciferin derivatives as substrates for luminescent CYP450 assays would be useful as probes for detecting other CYP450 substrates. Because two distinct substrates for the same CYP450 isoform will likely compete for the active site, it is possible to characterize known substrates and to identify novel substrates by observing their capacity to inhibit the luminescent reactions with luciferin derivatives. […] The drugs inhibited the reactions in a dose-dependent manner, thus verifying the expectation that CYP450 substrates can be detected by these luminescent assays (see table below). IC50s were calculated by non-linear regression analysis with the program GraphPad PRISM™ (San Diego, Calif.). The reactions were performed as described in Example 2 except the first step (CYP450 reaction) was in a 50 microliter reaction volume with 1 picomole of CYP450. In the second step a 50 microliter luciferase reaction was added to give final concentrations of 50 micrograms/mL recombinant, mutant of firefly luciferase from Photuris pennsylvanica from Promega (17), 200 micromolar ATP, 0.1% tergitol (v/v), 4.0 mM MgSO4 and 100 mM Tricine pH 8.4. FIGS. 11(a)-(c) illustrate the actual inhibition curves.

CYP2E1 = target: T5, CYP2E1 (Homo sapiens, UniProt P05181); test: Two-step CYP450/Renilla reaction, coelenterazine derivative evaluation; assay type: biochemical; conditions: 60 min at 37° C.; 3 micromolar substrate
T5 construct: purchased GenTest (Woburn, Mass.); host or cells: Sf9 insect cells, baculovirus
Method: as §1, §2

T5 sequence (P05181 whole entry): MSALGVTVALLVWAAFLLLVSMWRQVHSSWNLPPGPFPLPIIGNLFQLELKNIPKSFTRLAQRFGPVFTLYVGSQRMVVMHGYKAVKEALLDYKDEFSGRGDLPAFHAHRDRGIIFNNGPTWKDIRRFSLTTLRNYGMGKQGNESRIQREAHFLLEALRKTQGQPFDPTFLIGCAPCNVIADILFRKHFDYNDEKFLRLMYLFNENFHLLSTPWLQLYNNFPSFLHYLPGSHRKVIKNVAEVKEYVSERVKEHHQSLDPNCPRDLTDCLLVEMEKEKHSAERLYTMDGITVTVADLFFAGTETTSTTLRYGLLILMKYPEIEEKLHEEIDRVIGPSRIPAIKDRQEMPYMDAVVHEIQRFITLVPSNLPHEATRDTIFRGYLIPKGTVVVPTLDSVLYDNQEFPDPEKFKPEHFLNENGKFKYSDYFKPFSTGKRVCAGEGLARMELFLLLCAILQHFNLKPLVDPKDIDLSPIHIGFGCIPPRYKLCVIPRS
T2 sequence (P33261 whole entry): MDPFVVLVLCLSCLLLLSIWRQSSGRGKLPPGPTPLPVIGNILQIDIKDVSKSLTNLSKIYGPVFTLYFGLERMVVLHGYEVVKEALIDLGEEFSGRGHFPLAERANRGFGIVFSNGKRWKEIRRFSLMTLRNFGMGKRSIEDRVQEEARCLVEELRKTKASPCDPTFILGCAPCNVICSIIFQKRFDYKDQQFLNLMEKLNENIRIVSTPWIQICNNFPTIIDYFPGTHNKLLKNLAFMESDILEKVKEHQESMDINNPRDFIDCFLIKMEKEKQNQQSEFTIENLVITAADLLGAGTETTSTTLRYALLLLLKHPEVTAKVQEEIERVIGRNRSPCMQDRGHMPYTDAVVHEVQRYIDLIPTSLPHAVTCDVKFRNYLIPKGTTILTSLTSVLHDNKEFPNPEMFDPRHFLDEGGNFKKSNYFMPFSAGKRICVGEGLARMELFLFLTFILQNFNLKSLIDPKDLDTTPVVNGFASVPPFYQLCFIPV

Compound: COc1c(Cc2ccccc2)nc2c(Cc3ccccc3)nc(-c3ccccc3)cn12 [methyl-coelenterazine HH, 2,8-Dibenzyl-3-methoxy-6-phenyl-imidazo[1,2-a]pyrazine]
- Increase in chemiluminescence and bioluminescence with CYP1A2 (+P450 RLU/-P450 RLU) (CYP1A2; 10 micromolar substrate): 2-5 ×
- Increase in chemiluminescence and bioluminescence with CYP2C19 (+P450 RLU/-P450 RLU) (CYP2C19): 2-5 ×
- Increase in chemiluminescence and bioluminescence with CYP2B6 (+P450 RLU/-P450 RLU) (CYP2B6): 2-5 ×
- Change in chemiluminescence and bioluminescence after incubation with CYP1A1 (CYP1A1 [1]): large increase

Compound: Cc1ccc2nc(-c3ccc(N)cc3)sc2c1 [APMBT, 2-(4-aminophenyl)-6-methylbenzothiazole]
- Effect on luminescent signal in a luminescent CYP450 assay (thermostable luciferase): stabilizes the luminescent signal

Compound: CCOc1ccc(NC(C)=O)cc1 [Phenacetin, phenacetin]
- IC50 (CYP1A1 [2]): 21 µM

Compound: O=c1c(Cc2ccccc2)nc2c(Cc3ccccc3)[nH]c(-c3ccccc3)cn1-2 [coelenterazine HH, 2,8-Dibenzyl-6-phenyl-7H-imidazo[1,2-a]pyrazin-3-one]
- Change in chemiluminescence and bioluminescence after incubation with CYP1A2 (CYP1A2; 3 micromolar substrate): significant reduction
- Change in chemiluminescence and bioluminescence after incubation with CYP2E1 (CYP2E1): significant reduction
